Values quoted from earlier work as cited in patent US8501717B2, “Methods to treat and/or prevent mucositis” (Merck, Sharp & Dohme Corp., priority 2007, dated 2013).

Conditions: less than the effect of an equal dose of calcitriol

For `C=C1/C(=C\C=C2/CCC[C@]3(C)C([C@H](C)CC#CC(C)(C)O)=CC[C@@H]23)C[C@@H](O)C[C@@H]1O` [Ro23-7553], the “hypercalcemic effect compared to calcitriol (in words)” value is listed as “reduced hypercalcemic effect”.
